Values quoted from earlier work in patent publication US8828453B2, “Herbal-based compositions for alleviating symptoms associated with autism” (priority 2010, dated 2014).

System: newborn murine brain

CCCCC/C=C\C/C=C\C/C=C\C/C=C\CCCC(=O)NCCO [anandamide]
protection against excitotoxic damage: protected the newborn murine brain against excitotoxic damage
